Test results taken from ChEMBL document CHEMBL1139754, “Insect pest control agents: Novel chiral butanoate esters (juvenogens)” (Bioorg Med Chem, 2007).

Test system: Prorhinotermes
Experiment: Juvenilizing activity against termite Prorhinotermes simplex at 0.5 mg m/L
Assay type: functional

| SMILES | Activity |
| --- | --- |
| CCCC(=O)O[C@@H]1CCCC[C@@H]1Cc1ccc(OCCNC(=O)OCC)cc1 | 65% |
| CCCC(=O)O[C@@H]1CCCC[C@H]1Cc1ccc(OCCNC(=O)OCC)cc1 | 65% |
| CCCC(=O)O[C@H]1CCCC[C@H]1Cc1ccc(OCCNC(=O)OCC)cc1 | 65% |
| CCCC(=O)O[C@H]1CCCC[C@@H]1Cc1ccc(OCCNC(=O)OCC)cc1 | 65% |
